Reference: patent US5981558A, “DC107 derivatives” (Kyowa Hakko Kogyo Co., Ltd., priority 1996, dated 1999)
Converted amounts (≈) assume the structure as drawn. Like-named read-outs stand apart in the source and are kept apart here.

Tests used:
[1] = system: EC: Escherichia coli ATCC 26; test: Antimicrobial activity by the agar dilution method (MIC); format: cell-based
Experimental: (§1) Antimicrobial activity was determined by the agar dilution method using a culture medium (pH 7) prepared by dissolving 3 g of Bacto-Tryptone (manufactured by Difco, Co.), 3 g of meat extract, 1 g of yeast extract, 1 g of glucose, and 16 g of agar in 1 l of water.

[2] = system: KP: Klebisiella pneumoniae ATCC 10031; test: as above; format: cell-based
Experimental: as §1

HeLa S3 cells = test: HeLa S3 Cell Growth Inhibition Test; format: cell-based; settings: Homo sapiens
Procedure, shortened: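 HeLa S3 cells seeded overnight in MEM with 10% FBS, then exposed to compound for 72 h at 37 °C. Viable cells stained with Neutral Red, dye extracted, absorbance read at 550 nm; IC50 derived against untreated cells.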

[3] = system: SA: Staphylococcus aureus ATCC 6538P; test: Antimicrobial activity by the agar dilution method (MIC); format: cell-based; settings: ATCC6538P
Experimental: as §1

[4] = system: EH: Enterococcus hirae ATCC 10541; test: as above; format: cell-based; settings: pH 7
Experimental: as §1

[5] = system: BS: Bacillus substilis No. 10707; test: as above; format: cell-based
Experimental: as §1

[6] = system: Sarcoma 180 mouse solid tumor; test: Antitumor activity against Sarcoma 180 mouse solid tumor; format: in vivo, mouse (ddY); settings: Sarcoma-180, iv, 168 h
Experimental: To a ddY mouse were intraperitoneally transplanted 5×10^6 sarcoma 180 cells. On the seventh day from the transplant, the cells were collected from the ascites, washed once with sterilized physiological saline, and then diluted with sterilized physiological saline to prepare a cell suspension having a concentration of 5×10^7 cells/mL. This suspension was transplanted in an amount of 0.01 mL to a subcutaneous part of the right axilla of each of male ddY mice each weighing 20±1 g.
A test compound was dissolved in physiological saline containing polyoxyethylene sorbitan monolaurate. At 24 hours after the tumor transplant, 0.2 mL of the solution was intravenously administered to the tail of each of a group of five mice.

[7] = Escherichia coli, ATCC26, pH 7, read-out: minimum inhibitory concentration (MIC), EC
[8] = pH 7, read-out: minimum inhibitory concentration (MIC), KP
[9] = HeLa S3, 72 h, read-out: IC50, HeLa S3 cell growth inhibition, HeLa S3, 72 hours incubation, Neutral Red
[10] = Staphylococcus aureus, pH 7, read-out: minimum inhibitory concentration (MIC), SA
[11] = Bacillus, pH 7, read-out: minimum inhibitory concentration (MIC), BS
[12] = read-out: T/C (tumor volume ratio treated/control)
[13] = Klebisiella pneumoniae ATCC 10031, agar dilution, pH 7, read-out: minimum inhibitory concentration (MIC), KP
[14] = HeLa S3, 72 hours incubation, Neutral Red, read-out: IC50, HeLa S3 cell growth inhibition
[15] = Staphylococcus aureus ATCC 6538P, agar dilution, pH 7, read-out: minimum inhibitory concentration (MIC), SA
[16] = Bacillus substilis No. 10707, agar dilution, pH 7, read-out: minimum inhibitory concentration (MIC), BS
[17] = 16 mg/kg i.v. once, 24 hours after transplant, tumor volume on day 7, read-out: T/C (tumor volume ratio treated/control)
[18] = HeLa S3, 72 h, HeLa S3, 72 hours incubation, Neutral Red, read-out: IC50, HeLa S3 cell growth inhibition
[19] = 8.0 mg/kg i.v. once, 24 hours after transplant, tumor volume on day 7, read-out: T/C (tumor volume ratio treated/control)

Structure (SMILES) | MIC [2, 8] [µg/mL] | IC50 (HeLa S3 cells; [9]) [nM] | MIC [3, 10] [µg/mL] | minimum inhibitory concentration (MIC), EH [4] [µg/mL] | MIC [5, 11] [µg/mL] | also measured
C/C1=C\C(O)C(=O)/C=C/C=C\c2csc(n2)C(C)N2C(=O)CC(C(C)(O)C(=O)SCOC(=O)CCc3ccc(O)cc3)(CC1)[S+]2[O-] (stereo not drawn) [Compound 70] | 0.91 (≈ 1.32 µM) | 2.6 | 0.91 (≈ 1.32 µM) | 0.91 (≈ 1.32 µM) | 0.057 (≈ 0.0827 µM) | MIC [1, 7]: 29 µg/mL (≈ 42.1 µM)
C/C1=C\C(O)C(=O)/C=C/C=C\c2csc(n2)C(C)N2C(=O)CC(C(C)(O)C(=O)SCOC(=O)CCCNC(=O)C(C)(CO)CO)(CC1)[S+]2[O-] (stereo not drawn) [Compound 139] | 25 (≈ 33.7 µM) | – | 25 (≈ 33.7 µM) | 12 (≈ 16.2 µM) | 12 (≈ 16.2 µM) | response vs control in vivo at 4 mg/kg [6, 12]: 33%
C/C1=C\C(OC2CCCCO2)C(=O)/C=C/C=C\c2csc(n2)C(C)N2C(=O)CC(C(C)(O)C(=O)SCc3oc(=O)oc3COC3C[C@H](O[Si](C)(C)C(C)(C)C)[C@@H](O[Si](C)(C)C(C)(C)C)[C@H](C)O3)(CC1)[S+]2[O-] (stereo partly drawn) [Compound 80] | – | – | – | 3.4 (≈ 3.14 µM) | – | MIC [2, 13]: 27 µg/mL (≈ 25 µM); IC50 (HeLa S3 cells; [14]): 330 nM; MIC [3, 15]: 3.4 µg/mL (≈ 3.14 µM); MIC [5, 16]: 0.42 µg/mL (≈ 0.388 µM); response vs control in vivo at 16 mg/kg [6, 17]: 37%
C/C1=C\C(O)C(=O)/C=C/C=C\c2csc(n2)C(C)N2C(=O)CC(C(C)(O)C(=O)SCc3oc(=O)oc3CO)(CC1)[S+]2[O-] (stereo not drawn) [Compound 86] | 0.16 (≈ 0.25 µM) | 610 | 0.33 (≈ 0.517 µM) | 0.16 (≈ 0.25 µM) | 0.16 (≈ 0.25 µM) | MIC [1, 7]: 10 µg/mL (≈ 15.7 µM)
COC(=O)NCC(=O)OCOC1C=C(C)CCC2(C(C)(O)C(=O)SCOC(=O)CNC(=O)OC)CC(=O)N(C(C)c3nc(cs3)C=CC=CC1=O)[S+]2[O-] (stereo not drawn) [Compound 18] | – | – | – | 5.7 (≈ 7.12 µM) | – | MIC [2, 13]: 2.9 µg/mL (≈ 3.62 µM); IC50 (HeLa S3 cells; [18]): 150 nM; MIC [3, 15]: 11 µg/mL (≈ 13.7 µM); MIC [5, 16]: 11 µg/mL (≈ 13.7 µM); response vs control in vivo at 4 mg/kg ([6]; 4.0 mg/kg i.v. once, 24 hours after transplant, tumor volume on day 7, read-out: T/C (tumor volume ratio treated/control)): 38%
COC(=O)NCC(=O)OCSC(=O)C(C)(O)C12CCC(C)=CC(O)C(=O)C=CC=Cc3csc(n3)C(C)N(C(=O)C1)[S+]2[O-] (stereo not drawn) [Compound 17] | – | – | – | 1.3 (≈ 1.98 µM) | – | MIC ([1]; ATCC26, Escherichia coli ATCC 26, agar dilution, pH 7, read-out: minimum inhibitory concentration (MIC), EC): 42 µg/mL (≈ 64 µM); MIC [2, 13]: 0.65 µg/mL (≈ 0.991 µM); IC50 (HeLa S3 cells; [18]): 15 nM; MIC [3, 15]: 0.65 µg/mL (≈ 0.991 µM); MIC [5, 16]: 0.65 µg/mL (≈ 0.991 µM)
C/C1=C\C(OC2CCCCO2)C(=O)/C=C/C=C\c2csc(n2)C(C)N2C(=O)CC(C(C)(O)C(=O)SCc3oc(=O)oc3COC3C[C@@H](O)[C@H](O)[C@@H](CO)O3)(CC1)[S+]2[O-] (stereo partly drawn) [Compound 83] | 4.7 (≈ 5.41 µM) | 11 | 0.32 (≈ 0.368 µM) | 0.59 (≈ 0.679 µM) | 0.037 (≈ 0.0426 µM) | MIC [1, 7]: 4.7 µg/mL (≈ 5.41 µM)
CC[Si](CC)(CC)OC[C@H]1OC(OCc2oc(=O)oc2CSC(=O)C(C)(O)C23CC/C(C)=C/C(OC4CCCCO4)C(=O)/C=C/C=C\c4csc(n4)C(C)N(C(=O)C2)[S+]3[O-])C[C@@H](O[Si](CC)(CC)CC)[C@@H]1O[Si](CC)(CC)CC (stereo partly drawn) [Compound 82] | – | – | – | 4.2 (≈ 3.47 µM) | – | MIC [2, 13]: 33 µg/mL (≈ 27.2 µM); IC50 (HeLa S3 cells; [14]): 800 nM; MIC [3, 15]: 2.1 µg/mL (≈ 1.73 µM); response vs control in vivo at 16 mg/kg [6, 17]: 36%
C/C1=C\C(O)C(=O)/C=C/C=C\c2csc(n2)C(C)N2C(=O)CC(C(C)(O)C(=O)SCc3oc(=O)oc3COC(=O)CN(C)C)(CC1)[S+]2[O-] (stereo not drawn) [Compound 158] | 1.3 (≈ 1.8 µM) | – | 0.33 (≈ 0.456 µM) | 0.33 (≈ 0.456 µM) | < 0.041 | response vs control in vivo at 32 mg/kg [6, 12]: 31%
C/C1=C\C(O)C(=O)/C=C/C=C\c2csc(n2)C(C)N2C(=O)CC(C(C)(O)C(=O)SCOC(=O)CCCNC(=O)[C@@H]3CCC(=O)N3)(CC1)[S+]2[O-] (stereo partly drawn) [Compound 144] | 12 (≈ 16.3 µM) | – | 12 (≈ 16.3 µM) | 5.8 (≈ 7.87 µM) | 12 (≈ 16.3 µM) | response vs control in vivo at 8 mg/kg [6, 12]: 26%
COC(=O)[C@H](CCC(=O)OCSC(=O)C(C)(O)C12CCC(C)=CC(O)C(=O)C=CC=Cc3csc(n3)C(C)N(C(=O)C1)[S+]2[O-])NC(=O)[C@@]12O[C@H]3COC(C)(C)O[C@H]3[C@@H]1OC(C)(C)O2 (stereo partly drawn) [Compound 24] | 46 (≈ 48.9 µM) | 550 | 23 (≈ 24.5 µM) | 23 (≈ 24.5 µM) | 23 (≈ 24.5 µM) | response vs control in vivo at 16 mg/kg [6, 12]: 12%
CC(=O)Oc1ccc(C(=O)OCSC(=O)C(C)(O)C23CC/C(C)=C/C(OC4CCCCO4)C(=O)/C=C/C=C\c4csc(n4)C(C)N(C(=O)C2)[S+]3[O-])cc1 (stereo not drawn) [Compound 53] | – | – | – | – | – | IC50 (HeLa S3 cells; [18]): 35 nM; response vs control in vivo at 8 mg/kg [6, 19]: 50%
C/C1=C\C(OC2CCCCO2)C(=O)/C=C/C=C\c2csc(n2)C(C)N2C(=O)CC(C(C)(O)C(=O)SCOC(=O)CCNC(=O)[C@@]34O[C@@H](CO)[C@@H](O)[C@@H]3OC(C)(C)O4)(CC1)[S+]2[O-] (stereo partly drawn) [Compound 64] | – | 35 | – | – | – | response vs control in vivo at 8 mg/kg [6, 12]: 43%
C/C1=C\C(OC2CCCCO2)C(=O)/C=C/C=C\c2csc(n2)C(C)N2C(=O)CC(C(C)(O)C(=O)SCOC(=O)CCNC(=O)[C@H]3O[C@@H]4OC(C)(C)O[C@@H]4[C@H]4OC(C)(C)O[C@H]43)(CC1)[S+]2[O-] (stereo partly drawn) [Compound 45] | – | 44 | – | – | – | response vs control in vivo at 8 mg/kg [6, 12]: 45%
C/C1=C\C(O)C(=O)/C=C/C=C\c2csc(n2)C(C)N2C(=O)CC(C(C)(O)C(=O)SCc3oc(=O)oc3COC3C[C@H](O[Si](C)(C)C(C)(C)C)[C@@H](O[Si](C)(C)C(C)(C)C)[C@H](C)O3)(CC1)[S+]2[O-] (stereo partly drawn) [Compound 79] | – | – | – | – | – | IC50 (HeLa S3 cells; [14]): 790 nM; response vs control in vivo at 8 mg/kg [6, 19]: 45%
C/C1=C\C(OC2CCCCO2)C(=O)/C=C/C=C\c2csc(n2)C(C)N2C(=O)CC(C(C)(O)C(=O)SCc3oc(=O)oc3COC(=O)c3cnc4ccccc4n3)(CC1)[S+]2[O-] (stereo not drawn) [Compound 94] | – | 33 | – | – | – | response vs control in vivo at 8 mg/kg [6, 12]: 43%
C/C1=C\C(O)C(=O)/C=C/C=C\c2csc(n2)C(C)N2C(=O)CC(C(C)(O)C(=O)SCOC(=O)CCCN3CCCC3=O)(CC1)[S+]2[O-] (stereo not drawn) [Compound 145] | 7.7 (≈ 11.1 µM) | – | 15 (≈ 21.6 µM) | 7.7 (≈ 11.1 µM) | 7.7 (≈ 11.1 µM) | response vs control in vivo at 4 mg/kg [6, 12]: 23%
COC(=O)[C@H](CCC(=O)OCSC(=O)C(C)(O)C12CC/C(C)=C/C(O)C(=O)/C=C/C=C\c3csc(n3)C(C)N(C(=O)C1)[S+]2[O-])NC(=O)[C@@]12O[C@@H](CO)[C@@H](O)[C@@H]1OC(C)(C)O2 (stereo partly drawn) [Compound 60] | 15 (≈ 16.7 µM) | 550 | 15 (≈ 16.7 µM) | 7.3 (≈ 8.11 µM) | 15 (≈ 16.7 µM) | response vs control in vivo at 8 mg/kg [6, 12]: 31%
CC1=CC(O)C(=O)C=CC=Cc2csc(n2)C(C)N2C(=O)CC(C(C)(O)C(=O)SCOC(=O)C3CCC(C(=O)O)CC3)(CC1)[S+]2[O-] (stereo not drawn) [Compound 11] | – | – | – | – | – | IC50 (HeLa S3 cells; HeLa S3, 72 h, read-out: IC50, HeLa S3 cell growth inhibition, footnote *: Value after 72 hours of drug treatment): 100 nM; response vs control in vivo at 4 mg/kg [6, 12]: 48%
COCCOCCOCC(=O)OCc1oc(=O)oc1CSC(=O)C(C)(O)C12CC/C(C)=C/C(O)C(=O)/C=C/C=C\c3csc(n3)C(C)N(C(=O)C1)[S+]2[O-] (stereo not drawn) [Compound 101] | – | – | – | – | – | IC50 (HeLa S3 cells; [18]): 100 nM; response vs control in vivo at 16 mg/kg [6, 17]: 27%
